Source: US12502440B2, “Cross-linking compounds and methods of use thereof” (North Carolina State University, priority 2019, dated 2025)

Molecular target: T1, β-glucosidase from Agrobacterium (Agrobacterium sp., UniProt P12614)
T1 construct: purchased Megazyme
T1 sequence (P12614 1-459): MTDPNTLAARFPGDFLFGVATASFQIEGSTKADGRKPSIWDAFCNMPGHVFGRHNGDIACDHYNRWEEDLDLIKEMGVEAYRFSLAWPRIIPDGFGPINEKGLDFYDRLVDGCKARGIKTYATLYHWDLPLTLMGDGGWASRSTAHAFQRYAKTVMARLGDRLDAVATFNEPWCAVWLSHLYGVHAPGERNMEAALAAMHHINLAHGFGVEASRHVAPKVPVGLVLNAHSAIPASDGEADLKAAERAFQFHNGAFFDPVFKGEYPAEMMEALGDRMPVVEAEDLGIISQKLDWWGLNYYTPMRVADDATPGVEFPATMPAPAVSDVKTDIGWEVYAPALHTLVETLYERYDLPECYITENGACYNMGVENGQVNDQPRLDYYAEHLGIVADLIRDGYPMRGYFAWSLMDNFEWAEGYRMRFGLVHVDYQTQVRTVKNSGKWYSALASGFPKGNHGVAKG
Assay: Oligomerization of bis(indoxyl-glucoside) 46 with β-glucosidase from Agrobacterium
Type: biochemical
Settings: precipitate from 300 μM of 46 suspended in H2O
Experimental: Oligomerization of 46 was carried out by treatment with β-glucosidase from Agrobacterium (200 nM) in 10 mM phosphate buffer (pH 7) at 37° C. for 2-4 h (Scheme 9). Precipitation occurred during the reaction. After centrifugation, the precipitate was separated from the supernatant, washed with H2O, and dried to afford a blue solid.
The efficacy of the indigogenic oligomerization was examined under a variety of conditions. As shown in entries 1˜4 in Table 2, the yield of indigoid dye in the supernatant versus precipitate reversed as the concentration of 46 was decreased from 300 to 10 μM, although the total yields were in the range 17-29%. While the reactions in entries 1˜4 were carried out in phosphate buffer containing NaCl (0.05 M), those of entries 5 and 6 (with 300 and 50 μM of 46, respectively) were conducted in NaCl-free phosphate buffer. The use of NaCl-free phosphate buffer facilitated extraction of the indigoid dye in the supernatant for analysis.
The time course of the oligomerization was examined under the reaction conditions listed in entry 5 of Table 2, with 300 μM of 46. Noticeable changes include observation of blue clouding and color deepening at 20 min. Centrifugation enabled isolation of the precipitate. […] The absorption spectrum of the precipitate was examined in DMF/DMSO (9:1) and compared with that of the extracted supernatant (in DMF) and 43 (in DMF) (FIG. 10D). […]

Compound: O=S(=O)([O-])CCC[N+]1(CCCO)CCN(c2nc(OCCOCCOCCOc3c(Br)cc4[nH]cc(O[C@@H]5O[C@H](CO)[C@@H](O)[C@H](O)[C@H]5O)c4c3Br)nc(OCCOCCOCCOc3c(Br)cc4[nH]cc(O[C@@H]5O[C@H](CO)[C@@H](O)[C@H](O)[C@H]5O)c4c3Br)n2)CC1 [compound 46]
- particle size of precipitate by DLS (number mean): ~680 nm
